Data on 53 compounds can be found in patent publication US12338203B2 (TAISHO PHARMACEUTICAL CO., LTD., priority 2019, dated 2025).

Structures are written as SMILES.

This assay concerns the target T1, human LPAR1 (Homo sapiens, UniProt Q92633).
T1 construct: expressed in transfected cells
Briefly: Test Example 1: antagonism against response of LPA-induced increase in intracellular Ca2+ concentration in RH7777 cells stably expressing human LPAR1. In kind it is cell-based. To be noted: RH7777 cells stably expressing human LPAR1; Fluo-4 fluorescence, FDSS6000; read-out: IC50 value (concentration producing 50% antagonism against response of LPA-induced increase in intracellular Ca2+ concentration) (converted). In short, it runs like this:
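RH7777 cells stably transfected with human LPAR1 were preincubated with test compound 30 min at 37 °C in HBSS/20 mM HEPES/probenecid/0.05% BSA buffer, pH 7.4, then LPA-stimulated.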

T1 sequence (Q92633 whole entry): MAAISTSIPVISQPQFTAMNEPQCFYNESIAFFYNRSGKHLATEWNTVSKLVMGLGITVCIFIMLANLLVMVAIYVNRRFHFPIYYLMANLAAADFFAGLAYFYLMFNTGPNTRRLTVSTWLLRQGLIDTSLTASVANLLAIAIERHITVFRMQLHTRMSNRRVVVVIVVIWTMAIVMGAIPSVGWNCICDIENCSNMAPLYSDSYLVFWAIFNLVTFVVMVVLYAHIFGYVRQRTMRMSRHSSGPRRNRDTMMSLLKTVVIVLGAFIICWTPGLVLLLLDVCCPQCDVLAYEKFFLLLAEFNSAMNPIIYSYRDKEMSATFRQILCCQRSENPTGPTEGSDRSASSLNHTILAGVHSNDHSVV

On to `CCOC1CC(NC(=O)N(CCOCc2ccccc2)C(C)c2cc(OC)c(C(C)=O)c(OC)c2C)(C(=O)O)C1` (centres unmarked) [Example 5-164], for which the IC50 is 4.84 nM.
For `CCOc1cc([C@@H](C)N(CCCCc2ccccc2)C(=O)NC2(C(=O)NS(N)(=O)=O)CC(F)(F)C2)cc(OCC)c1C(C)=O` [Example 7-4, 1-({[(1R)-1-(4-Acetyl-3,5-Diethoxyphenyl)Ethyl](4-Phenylbutyl) Carbamoyl}Amino)-3,3-Difluoro-N-Sulfamoylcyclobutane-1-Carboxamide], the IC50 was 3.42 nM.
For `CCOc1cc(C(C)N(CCCCc2ccccc2)C(=O)NC2(c3nn[nH]n3)CCCC2)cc(OCC)c1C` (centres unmarked) [Example 10-18], the IC50 was 38.4 nM.
Next, `COc1cc(C(C)N(CCCCc2ccccc2)C(=O)NC2(C(=O)O)CC(F)(F)C2)nc(OC)n1` (centres unmarked) [Example 5-88]: 43.1 nM; `CCOc1cc([C@@H](C)N(CCCCc2ccccc2)C(=O)NC2CCCC2C(=O)O)cc(OCC)c1C(C)=O` (some centres unmarked) [Example 1-135]: 2.17 nM; `COc1cc(C(CO)N(CCCCc2ccccc2)C(=O)NC2(C(=O)O)CC(F)(F)C2)cc(OC)c1C` (centres unmarked) [Example 3-6]: 7.07 nM.
Regarding `CCOc1cc([C@@H](C)N(CCCCc2ccccc2)C(=O)NC2CCC2C(=O)O)cc(OCC)c1C(C)=O` (some centres unmarked) [Example 1-126], the IC50 is 3.13 nM.
Turning to `C=C(C)c1c(OCC)cc(C(C)N(CCCCc2ccccc2)C(=O)NC2(C(=O)O)CC(F)(F)C2)cc1OCC` (centres unmarked) [Example 1-54], the IC50 was 3.25 nM.
The same measure for `CCOc1cc([C@@H](C)N(CCCCC2CCNCC2)C(=O)NC2(C(=O)O)CC(F)(F)C2)cc(OCC)c1C` [Example 4-34, 1-({[(1R)-1-(3,5-Diethoxy-4-Methylphenyl)Ethyl][4-(Piperidin-4-Yl)Butyl]Carbamoyl}Amino)-3,3-Difluorocyclobutane-1-Carboxylic Acid]: 7630 nM.
Take `CCOc1cc(C(C)N(CCCCc2ccccc2)C(=O)NC2(C(=O)NS(C)(=O)=O)CCCC2)cc(OCC)c1C` (centres unmarked) [Example 7-3]: the IC50 is 88.3 nM.
`CCOc1cc([C@@H](C)N(CCO[C@@H](C)c2ccccc2)C(=O)NC2(C(=O)O)CC(F)(F)C2)cc(OCC)c1C(C)=O` [Example 4-117]: the IC50 was 2.52 nM.
The same measure for `CCOc1cc([C@@H](C)N(CCCC(F)(F)c2ccccc2)C(=O)N[C@]2(C(=O)O)C[C@@H](OC)C2)cc(OCC)c1C(C)=O` [Example 4-65]: 5.3 nM.
Next, `CCOc1cc([C@@H](C)N(CCO[C@@H](C)c2ccccc2)C(=O)N[C@]2(C(=O)O)C[C@@H](OC)C2)cc(OCC)c1C(C)=O` [Example 4-121]: 3.35 nM; `CCOc1cc([C@@H](C)N(CCOCc2ccccc2)C(=O)N[C@]2(C(=O)O)C[C@@H](OC)C2)c(Cl)c(OCC)c1C(C)=O` [Example 5-36]: 1.62 nM.
The same measure for `COc1cc(CN(CCCCc2ccccc2)C(=O)NCC(C(=O)O)C(C)C)cc(OC)c1C` (centres unmarked) [Example 1-14]: 5690 nM.
Regarding `CCOc1cc([C@@H](C)N(CCO[C@@H](C)c2ccccc2)C(=O)N[C@]2(C(=O)O)C[C@@H](OCC)C2)cc(OCC)c1C(C)O` (some centres unmarked) [Example 4-136], the IC50 is 3.43 nM.
Regarding `CCOc1cc([C@@H](C)N(CCCCc2ccccc2)C(=O)NC2(C(=O)O)CC(OCC)C2)cc(OCC)c1C(C)O` (some centres unmarked) [Example 1-98], the IC50 is 4.33 nM.
The same measure for `CCOc1cc([C@@H](C)N(CCC(F)(F)Cc2ccccc2)C(=O)NC2(C(=O)O)CC(F)(F)C2)c(Cl)c(OCC)c1C(C)=O` [Example 5-40]: 4.63 nM.
`CC(c1ccc(F)cc1)N(CCCCc1ccccc1)C(=O)NC1(C(=O)O)CC(F)(F)C1` (centres unmarked) [Example 5-6]: the IC50 was 164 nM.
`CCOc1cc([C@@H](C)N(CCO[C@@H](C)c2ccccc2)C(=O)N[C@]2(C(=O)O)C[C@@H](OCC)C2)cc(OCC)c1C1CC1` [Example 4-139, cis-1-[([(1R)-1-(4-cyclopropyl-3,5-diethoxyphenyl)ethyl]{2-[(1S)-1-phenylethoxy]ethyl}carbamoyl)amino]-3-ethoxycyclobutane-1-carboxylic acid]: the IC50 is 1.32 nM.
Next, `CCOc1cc(C(C)N(CCO[C@@H](C)c2ccccc2)C(=O)NC2(C(=O)O)CC(OCC)C2)c(Cl)c(OCC)c1C(C)=O` (some centres unmarked) [Example 5-223]: 2.08 nM.
Consider `CCOc1cc([C@@H](C)N(CCCCc2ccccc2)C(=O)NC2(C(=O)O)CNC2)cc(OCC)c1C` [Example 1-158, 3-({[(1R)-1-(3,5-Diethoxy-4-Methylphenyl)Ethyl](4-Phenylbutyl) Carbamoyl}Amino) Azetidine-3-Carboxylic Acid], for which the IC50 was 294 nM.
On to `CCOc1cc([C@@H](C)N(CCC(F)(F)Cc2ccccc2)C(=O)NC2(C(=O)O)CC(OC)C2)c(C)c(OCC)c1C` (some centres unmarked) [Example 5-77], for which the IC50 is 14 nM.
The same measure for `CCOc1cc([C@@H](C)N(CCC(F)(F)Cc2ccccc2)C(=O)NC2(C(=O)O)CCOCC2)cc(OCC)c1C(C)=O` [Example 4-95]: 37.4 nM; for `CCOc1cc([C@@H](C)N(CCCCc2ccccc2)C(=O)NC2(C(=O)O)CCOC2)cc(OCC)c1C` (some centres unmarked) [Example 1-150]: 8 nM; for `CCOc1cc([C@@H](C)N(CCCc2ccccc2)C(=O)NC2(C(=O)O)CC(F)(F)C2)cc(OCC)c1C` [Example 4-36]: 5.7 nM.
The same measure for `CCOc1cc([C@@H](C)N(CCO[C@@H](C)c2ccccc2)C(=O)NC2(C(=O)O)CC(OC)C2)c(C)c(OCC)c1C(C)=O` (some centres unmarked) [Example 5-71]: 2.51 nM; for `CCOC1CC(NC(=O)N(CCOC(C)c2ccccc2)C(C)c2cc(OC)c(C3CC3)c(OC)c2)(C(=O)O)C1` (centres unmarked) [Example 5-167]: 5.26 nM.
Next, `CCOc1cc([C@@H](C)N(CCC(F)(F)Cc2ccccc2)C(=O)NC2(C(=O)O)CC(OCC)C2)cc(OCC)c1C(C)=O` (some centres unmarked) [Example 4-92]: 7.79 nM; `COc1cc(C(C)N(CCOC(C)c2ccccc2)C(=O)NC2(C(=O)O)CC(OC)C2)cc(OC)c1C1CC1` (centres unmarked) [Example 5-157]: 3.54 nM.
Take `CCOc1c(C(C)=O)ccc([C@@H](C)N(CCO[C@@H](C)c2ccccc2)C(=O)N[C@]2(C(=O)O)C[C@@H](OCC)C2)c1C` [Example 4-140]: the IC50 was 5.67 nM.
Regarding `CCOc1c(C2CC2)ccc([C@@H](C)N(CCOC(C)c2ccccc2Cl)C(=O)NC2(C(=O)O)CCC2)c1C` (some centres unmarked) [Example 4-178], the IC50 is 24 nM.
Next, `CCOc1cc([C@@H](C)N(CCCCc2ccccc2)C(=O)N[C@H]2COC[C@H]2C(=O)O)cc(OCC)c1C(C)=O` [Example 1-161]: 9.64 nM; `CCOc1cc(C(C)N(CCCCc2ccccc2)C(=O)NC2(C(=O)O)CC(F)(F)C2)cc(OCC)c1C(O)C(F)(F)F` (centres unmarked) [Example 1-52]: 7.96 nM; `CCOc1cc(C(C)N(CCO[C@@H](C)c2ccccc2)C(=O)NC2(C(=O)O)CC(OCC)C2)c(Cl)c(OCC)c1C1CC1` (some centres unmarked) [Example 5-222]: 1.79 nM.
As to `CCOc1cc([C@@H](C)N(CCCC(F)(F)c2ccccc2)C(=O)NC2(C(=O)O)CCC2)cc(OCC)c1C(C)O` (some centres unmarked) [Example 4-52], the IC50 is 2.68 nM.
Next, `CCOc1cc([C@@H](C)N(CCCC(F)(F)c2ccccc2)C(=O)NC2(C(=O)O)CCOCC2)cc(OCC)c1C(C)O` (some centres unmarked) [Example 4-77]: 5.87 nM.
Regarding `CCOc1cc(C(C)N(CCOCc2ccccc2)C(=O)NC2(C(=O)O)CC(OC)C2)c(Cl)c(OCC)c1C1CC1` (centres unmarked) [Example 5-206], the IC50 is 0.853 nM.
Take `CCOc1cc(C(=O)NC)cc(C(C)N(CCCCc2ccccc2)C(=O)NC2(C(=O)O)CC(F)(F)C2)c1` (centres unmarked) [Example 5-25]: the IC50 was 43.2 nM.
As for `CCOc1cc(C(C)N(CCCCc2ccccc2)C(=O)NC2CCC[C@@H]2C(=O)O)cc(OCC)c1C` (some centres unmarked) [Example 1-137], the IC50 was 102 nM.
In the case of `CCOc1cc([C@@H](C)N(CCCCc2ccccc2)C(=O)NC2(C(=O)O)CC(OCC)C2)cc(OCC)c1C` (some centres unmarked) [Example 1-100], the IC50 was 3.13 nM.
Next, `CCOc1cc([C@@H](C)N(CCOCc2ccccc2)C(=O)NC2(C(=O)O)CC(F)(F)C2)cc(OCC)c1C(C)O` (some centres unmarked) [Example 4-103]: 1.98 nM.
On to `CCOc1cc(OCC)cc(C(C)N(CCCCc2ccccc2)C(=O)NC2(C(=O)O)Cc3ccccc3C2)c1` (centres unmarked) [Example 5-11], for which the IC50 is 79.7 nM.
Next, `O=C(NC1(C(=O)O)CC(F)(F)C1)N(CCCCc1ccccc1)C1COc2c(Cl)cc(Cl)cc21` (centres unmarked) [Example 5-117]: 5.59 nM; `CCOc1cc([C@@H](C)N(CC(C)CCc2ccccc2)C(=O)NC2(C(=O)O)Cc3ccccc3C2)cc(OCC)c1C` (some centres unmarked) [Example 4-39]: 46.4 nM.
`CCOc1cc([C@@H](C)N(CCO[C@@H](C)c2ccccc2)C(=O)NC2(C(=O)O)CC(OC)C2)cc(OCC)c1C1(O)CC1` (some centres unmarked) [Example 4-127]: the IC50 was 21.3 nM.
Next, `CCOc1cc(C(C)N(CCCCc2ccccc2)C(=O)NC2(C(=O)O)CC(F)(F)C2)cc(OCC)c1C(=O)NC` (centres unmarked) [Example 1-61]: 103 nM.
Next, `COc1cc(C(C)N(CCOCc2ccccc2)C(=O)NC2(C(=O)O)CC(OC)C2)c(Cl)c(OC)c1C1CC1` (centres unmarked) [Example 5-153]: 0.961 nM.
Next, `CCOc1cc([C@@H](C)N(CCCC(F)(F)c2ccccc2)C(=O)NC2(C(=O)O)CC(F)(F)C2)cc(OCC)c1C1(O)CC1` [Example 4-57]: 4.47 nM; `CCOc1cc([C@@H](C)N(CCC(F)(F)Cc2ccccc2)C(=O)NC2(C(=O)O)CC(OC)C2)c(Cl)c(OCC)c1C(C)=O` (some centres unmarked) [Example 5-41]: 10.3 nM.
For `CCOc1cc([C@@H](C)N(CCO[C@@H](C)c2ccccc2)C(=O)N[C@]2(C(=O)O)C[C@H](OCC)C2)c(Cl)c(OCC)c1C(C)O` (some centres unmarked) [Example 5-63], the IC50 is 8.05 nM.
As for `CCCOc1cc(OCC)cc(C(C)N(CCCCc2ccccc2)C(=O)NC2(C(=O)O)CC(F)(F)C2)c1` (centres unmarked) [Example 5-17], the IC50 was 8.86 nM.
On to `CCOc1cc([C@@H](C)N(CCCCc2ccccc2)C(=O)NC2(C(=O)O)CCC2)cc(OCC)c1C(C)O` (single isomer, unassigned) [Example 1-22], for which the IC50 is 1.47 nM.
